Results on 24 targets are retold here after the supplement of paper PMC12463676, “Small-molecule dissolution of stress granules by redox modulation benefits ALS models” (Nature Chemical Biology, 2025).

Compound in experiment [1]: NC(=O)CCCCC1CCSS1 [lipoamide]
As to the kind of experiment: thermal stability z-score vs DMSO; higher = more thermally stabilized by treatment. Conditions: HeLa, lipoamide concentration 100 µM. The protocol: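 Cellular thermal proteome profiling in HeLa cells. Cells were treated with 100 µM lipoamide for 1 h, with or without 1 mM arsenate for a further 1 h, then heated to ten temperatures (37-66.3 °C), and soluble protein was quantified by TMT mass spectrometry relative to 0.1% DMSO controls. The thermal stability score (sum of log2 fold changes minus the abundance score) was transformed to a z-score; mean of n = 3 experiments.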

Compound in experiment [2]: O=[As]([O-])(O)O.[K+] [potassium arsenate]
Described as above. Conditions: HeLa; arsenate concentration 1 mM. As to the method: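 Cellular thermal proteome profiling in HeLa cells treated with 1 mM arsenate for 1 h (DMSO pretreatment), heated to ten temperatures (37-66.3 °C). Soluble protein was quantified by TMT mass spectrometry relative to DMSO controls; the thermal stability score was transformed to a z-score; mean of n = 3 experiments.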

The mark [3] stands for this setting: arsenate co-treatment: 1 mM arsenate 1 h.
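Further: each temperature applied for 3 min, abundance score taken as mean log2 fold change at the two lowest temperatures, z-score obtained by mean subtraction and division by SD.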

UniProt Q14134, sequence (Q14134 whole entry): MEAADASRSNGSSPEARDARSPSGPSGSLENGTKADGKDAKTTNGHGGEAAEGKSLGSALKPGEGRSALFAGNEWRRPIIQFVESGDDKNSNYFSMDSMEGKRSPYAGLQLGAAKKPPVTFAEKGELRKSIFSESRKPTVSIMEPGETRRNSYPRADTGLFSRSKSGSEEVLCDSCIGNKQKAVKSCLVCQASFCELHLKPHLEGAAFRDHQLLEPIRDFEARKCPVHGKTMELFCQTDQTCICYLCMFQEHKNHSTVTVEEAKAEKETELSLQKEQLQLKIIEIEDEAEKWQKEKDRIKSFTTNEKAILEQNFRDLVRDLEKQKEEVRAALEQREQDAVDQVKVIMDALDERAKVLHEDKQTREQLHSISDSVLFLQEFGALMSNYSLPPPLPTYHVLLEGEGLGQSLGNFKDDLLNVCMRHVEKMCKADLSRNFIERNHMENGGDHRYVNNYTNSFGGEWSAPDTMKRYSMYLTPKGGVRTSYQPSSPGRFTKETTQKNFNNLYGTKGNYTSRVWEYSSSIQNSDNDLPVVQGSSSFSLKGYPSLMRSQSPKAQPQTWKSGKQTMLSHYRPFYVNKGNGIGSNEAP
UniProt O75874, sequence (O75874 whole entry): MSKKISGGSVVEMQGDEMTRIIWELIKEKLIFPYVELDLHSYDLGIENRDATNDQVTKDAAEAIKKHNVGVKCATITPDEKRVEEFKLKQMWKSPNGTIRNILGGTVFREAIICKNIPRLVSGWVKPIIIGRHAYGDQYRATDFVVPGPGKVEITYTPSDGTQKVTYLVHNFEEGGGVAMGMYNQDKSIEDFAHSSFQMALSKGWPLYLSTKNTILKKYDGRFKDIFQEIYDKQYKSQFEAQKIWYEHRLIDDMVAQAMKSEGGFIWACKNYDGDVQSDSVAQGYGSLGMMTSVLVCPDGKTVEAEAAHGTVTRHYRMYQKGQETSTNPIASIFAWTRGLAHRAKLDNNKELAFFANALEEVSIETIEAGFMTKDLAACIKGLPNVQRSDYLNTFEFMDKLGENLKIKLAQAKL
UniProt Q96QG7, sequence (Q96QG7 whole entry): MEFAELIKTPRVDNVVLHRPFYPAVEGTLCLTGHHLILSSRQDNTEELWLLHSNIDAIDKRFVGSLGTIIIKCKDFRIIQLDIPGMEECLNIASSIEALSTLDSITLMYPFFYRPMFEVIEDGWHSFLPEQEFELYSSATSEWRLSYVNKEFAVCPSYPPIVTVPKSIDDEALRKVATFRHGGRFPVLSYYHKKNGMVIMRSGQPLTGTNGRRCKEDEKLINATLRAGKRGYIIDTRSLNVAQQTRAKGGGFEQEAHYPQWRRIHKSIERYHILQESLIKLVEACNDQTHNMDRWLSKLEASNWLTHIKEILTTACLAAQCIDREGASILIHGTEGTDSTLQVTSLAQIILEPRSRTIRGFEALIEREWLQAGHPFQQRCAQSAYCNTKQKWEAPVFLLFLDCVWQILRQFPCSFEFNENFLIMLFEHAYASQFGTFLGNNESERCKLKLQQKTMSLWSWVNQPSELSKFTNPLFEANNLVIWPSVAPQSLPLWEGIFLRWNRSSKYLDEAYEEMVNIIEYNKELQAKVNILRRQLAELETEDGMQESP
UniProt Q9BZ23, sequence (Q9BZ23 whole entry): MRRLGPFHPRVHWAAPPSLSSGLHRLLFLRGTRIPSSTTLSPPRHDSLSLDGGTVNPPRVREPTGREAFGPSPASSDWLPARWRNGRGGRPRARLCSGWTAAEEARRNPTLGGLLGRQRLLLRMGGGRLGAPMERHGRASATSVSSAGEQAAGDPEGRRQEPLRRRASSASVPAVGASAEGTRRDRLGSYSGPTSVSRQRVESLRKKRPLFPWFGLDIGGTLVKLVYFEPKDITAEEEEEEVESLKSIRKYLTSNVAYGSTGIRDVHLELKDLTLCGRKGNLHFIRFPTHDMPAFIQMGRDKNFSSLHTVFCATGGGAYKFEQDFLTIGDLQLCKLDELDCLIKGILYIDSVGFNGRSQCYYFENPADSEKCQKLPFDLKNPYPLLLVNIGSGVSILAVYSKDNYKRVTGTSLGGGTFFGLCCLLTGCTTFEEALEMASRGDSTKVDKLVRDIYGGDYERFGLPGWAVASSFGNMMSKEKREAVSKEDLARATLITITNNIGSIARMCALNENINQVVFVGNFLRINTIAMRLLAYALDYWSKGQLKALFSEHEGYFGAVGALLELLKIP
UniProt O60841, sequence (O60841 whole entry): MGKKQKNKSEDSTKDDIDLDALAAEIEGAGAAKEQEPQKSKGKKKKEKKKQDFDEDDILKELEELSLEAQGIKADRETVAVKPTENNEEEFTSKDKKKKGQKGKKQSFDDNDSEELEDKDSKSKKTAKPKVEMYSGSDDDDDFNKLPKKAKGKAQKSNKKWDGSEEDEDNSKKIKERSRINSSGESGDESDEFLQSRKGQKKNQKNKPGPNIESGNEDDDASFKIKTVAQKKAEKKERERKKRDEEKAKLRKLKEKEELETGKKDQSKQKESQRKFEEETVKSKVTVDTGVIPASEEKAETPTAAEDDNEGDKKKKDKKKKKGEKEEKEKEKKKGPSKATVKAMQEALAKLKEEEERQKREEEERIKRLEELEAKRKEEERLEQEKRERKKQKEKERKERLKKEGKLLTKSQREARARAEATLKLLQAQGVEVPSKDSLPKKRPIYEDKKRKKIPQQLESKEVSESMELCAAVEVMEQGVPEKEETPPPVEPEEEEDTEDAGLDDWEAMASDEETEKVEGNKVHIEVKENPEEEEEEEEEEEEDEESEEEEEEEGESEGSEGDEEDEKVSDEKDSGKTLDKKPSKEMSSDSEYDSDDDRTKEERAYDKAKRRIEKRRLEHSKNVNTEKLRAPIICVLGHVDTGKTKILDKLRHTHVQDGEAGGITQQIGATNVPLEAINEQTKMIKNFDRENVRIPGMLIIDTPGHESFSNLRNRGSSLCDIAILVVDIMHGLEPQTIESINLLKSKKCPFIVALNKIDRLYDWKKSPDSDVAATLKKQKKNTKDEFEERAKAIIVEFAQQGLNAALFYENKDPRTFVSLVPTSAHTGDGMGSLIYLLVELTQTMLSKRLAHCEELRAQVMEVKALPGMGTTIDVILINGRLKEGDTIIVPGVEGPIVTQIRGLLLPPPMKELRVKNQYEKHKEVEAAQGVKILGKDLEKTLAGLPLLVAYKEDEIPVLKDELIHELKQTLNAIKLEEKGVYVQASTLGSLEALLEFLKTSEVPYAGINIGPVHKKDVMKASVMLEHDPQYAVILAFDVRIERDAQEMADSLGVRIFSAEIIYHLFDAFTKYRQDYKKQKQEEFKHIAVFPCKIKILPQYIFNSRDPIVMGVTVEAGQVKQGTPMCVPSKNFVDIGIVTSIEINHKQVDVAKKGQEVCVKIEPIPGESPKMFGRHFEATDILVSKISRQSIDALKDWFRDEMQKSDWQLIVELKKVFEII
UniProt P61923, sequence (P61923 whole entry): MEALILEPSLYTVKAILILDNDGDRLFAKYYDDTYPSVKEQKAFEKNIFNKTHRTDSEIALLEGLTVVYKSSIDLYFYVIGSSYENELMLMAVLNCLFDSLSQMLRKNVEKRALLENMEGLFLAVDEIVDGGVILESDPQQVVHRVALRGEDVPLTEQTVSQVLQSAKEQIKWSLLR
UniProt Q13630, sequence (Q13630 whole entry): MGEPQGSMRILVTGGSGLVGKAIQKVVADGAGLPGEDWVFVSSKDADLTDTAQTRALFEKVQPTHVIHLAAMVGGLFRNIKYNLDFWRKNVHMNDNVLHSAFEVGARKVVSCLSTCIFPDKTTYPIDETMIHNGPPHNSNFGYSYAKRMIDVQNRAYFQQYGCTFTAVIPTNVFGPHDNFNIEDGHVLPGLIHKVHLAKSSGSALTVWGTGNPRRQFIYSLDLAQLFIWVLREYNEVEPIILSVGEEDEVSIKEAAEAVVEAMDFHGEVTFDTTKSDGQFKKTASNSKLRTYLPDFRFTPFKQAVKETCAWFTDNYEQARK
UniProt O75379, sequence (O75379 whole entry): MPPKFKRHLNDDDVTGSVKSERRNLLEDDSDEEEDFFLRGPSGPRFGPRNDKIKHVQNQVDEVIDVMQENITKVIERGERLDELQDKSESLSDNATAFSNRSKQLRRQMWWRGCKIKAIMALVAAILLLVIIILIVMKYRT
UniProt Q9H0B6, sequence (Q9H0B6 whole entry): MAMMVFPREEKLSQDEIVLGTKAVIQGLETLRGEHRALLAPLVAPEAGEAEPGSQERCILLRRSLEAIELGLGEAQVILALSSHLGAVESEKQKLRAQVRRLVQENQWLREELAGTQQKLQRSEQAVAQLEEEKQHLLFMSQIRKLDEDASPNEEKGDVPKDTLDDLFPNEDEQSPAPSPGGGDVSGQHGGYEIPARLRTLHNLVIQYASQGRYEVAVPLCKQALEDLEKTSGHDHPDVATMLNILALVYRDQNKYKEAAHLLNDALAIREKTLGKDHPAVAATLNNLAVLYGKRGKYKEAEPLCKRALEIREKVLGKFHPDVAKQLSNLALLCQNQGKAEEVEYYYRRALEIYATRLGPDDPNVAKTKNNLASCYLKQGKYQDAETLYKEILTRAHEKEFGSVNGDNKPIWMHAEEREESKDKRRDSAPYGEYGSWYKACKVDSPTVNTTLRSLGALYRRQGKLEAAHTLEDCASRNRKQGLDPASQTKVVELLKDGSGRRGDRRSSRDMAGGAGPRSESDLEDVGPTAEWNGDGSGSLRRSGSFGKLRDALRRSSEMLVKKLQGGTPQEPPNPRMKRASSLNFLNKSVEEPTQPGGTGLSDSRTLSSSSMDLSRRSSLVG
UniProt Q15599, sequence (Q15599 whole entry): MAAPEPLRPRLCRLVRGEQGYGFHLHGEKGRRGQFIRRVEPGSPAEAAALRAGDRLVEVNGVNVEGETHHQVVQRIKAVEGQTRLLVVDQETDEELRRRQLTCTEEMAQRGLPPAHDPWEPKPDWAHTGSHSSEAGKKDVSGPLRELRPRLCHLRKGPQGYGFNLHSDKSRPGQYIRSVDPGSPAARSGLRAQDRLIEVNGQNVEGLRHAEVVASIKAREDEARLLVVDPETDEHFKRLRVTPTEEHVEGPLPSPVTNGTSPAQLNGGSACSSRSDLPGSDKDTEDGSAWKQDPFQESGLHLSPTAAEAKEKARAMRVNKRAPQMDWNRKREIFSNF

On to ERCC6, for which the thermal stability z-score in experiment [1] (setting [3]) was 1.08; in experiment [1] (arsenate co-treatment: none), 0.347; in experiment [2], -0.581.

For the target A0A0B4J2A0|SHPK, the values for the thermal stability z-score in experiment [1] (setting [3]), in experiment [1] (arsenate co-treatment: none) and in experiment [2] were -0.157, -0.0688 and -0.112, respectively.

Turning to HDAC3 (UniProt O15379), the figures for the thermal stability z-score in experiment [1] (setting [3]), in experiment [1] (arsenate co-treatment: none) and in experiment [2] were -0.0189, -0.0121 and -0.0998, respectively.

As to SLC9A3R2 (UniProt Q15599), the thermal stability z-score in experiment [1] (setting [3]) was -0.0651; in experiment [1] (arsenate co-treatment: none), 0.332; in experiment [2], -0.923.

In the case of ANKZF1 (UniProt Q9H8Y5), the thermal stability z-score in experiment [1] (setting [3]) amounted to 0.373; in experiment [1] (arsenate co-treatment: none), 0.0149; in experiment [2], 0.0789.

Consider CMC2 (UniProt Q9NRP2), for which the figures for the thermal stability z-score in experiment [1] (setting [3]), in experiment [1] (arsenate co-treatment: none) and in experiment [2] were 0.275, 0.104 and 0.218, respectively.

Regarding PANK2 (UniProt Q9BZ23), the thermal stability z-score in experiment [1] (setting [3]) worked out at 0.583; in experiment [1] (arsenate co-treatment: none), 0.588; in experiment [2], 0.53.

As to DNAAF5 (UniProt Q86Y56), the thermal stability z-score is -0.979 in experiment [1] (setting [3]), 0.336 in experiment [1] (arsenate co-treatment: none) and 0.875 in experiment [2].

Regarding RPL5 (UniProt P46777), the thermal stability z-score in experiment [1] (setting [3]) is 0.172; in experiment [1] (arsenate co-treatment: none) it was 0.132; in experiment [2] it was -0.481.

As to IDH1 (UniProt O75874), the thermal stability z-score in experiment [1] (setting [3]) is 0.0654; in experiment [1] (arsenate co-treatment: none) it was -0.257; in experiment [2], -0.596.

For FKBP14 (UniProt Q9NWM8), the thermal stability z-score in experiment [1] (setting [3]) is -3.79; in experiment [1] (arsenate co-treatment: none), -2.85; in experiment [2], -0.591.

As for FAM174A (UniProt Q8TBP5), the thermal stability z-score in experiment [1] (setting [3]) came to 0.351; in experiment [1] (arsenate co-treatment: none) it was 0.647; in experiment [2], 1.14.

For SORD (UniProt Q00796), the results for the thermal stability z-score in experiment [1] (setting [3]), in experiment [1] (arsenate co-treatment: none) and in experiment [2] were 0.301, -0.192 and -0.608, respectively.

In the case of TRIM29 (UniProt Q14134), the figures for the thermal stability z-score in experiment [1] (setting [3]), in experiment [1] (arsenate co-treatment: none) and in experiment [2] were -0.0886, 0.185 and -0.177, respectively.

As for KLC2 (UniProt Q9H0B6), the thermal stability z-score in experiment [1] (setting [3]) was -0.0443; in experiment [1] (arsenate co-treatment: none), 0.117; in experiment [2], 0.557.

For EDEM2 (UniProt Q9BV94), the thermal stability z-score in experiment [1] (setting [3]) was 0.18; in experiment [1] (arsenate co-treatment: none) it was 0.234; in experiment [2], 0.127.

Turning to MTMR9 (UniProt Q96QG7), the figures for the thermal stability z-score in experiment [1] (setting [3]), in experiment [1] (arsenate co-treatment: none) and in experiment [2] were -0.0303, 1.35 and -0.12, respectively.

Regarding TSTA3 (UniProt Q13630), the thermal stability z-score is -0.467 in experiment [1] (setting [3]), -0.784 in experiment [1] (arsenate co-treatment: none) and -0.387 in experiment [2].

In the case of BLMH (UniProt Q13867), the thermal stability z-score in experiment [1] (setting [3]) was 0.51; in experiment [1] (arsenate co-treatment: none) it was 0.365; in experiment [2] it was 0.0746.

Consider COPZ1 (UniProt P61923), for which the thermal stability z-score was -0.374 in experiment [1] (setting [3]), 0.0476 in experiment [1] (arsenate co-treatment: none) and 0.734 in experiment [2].

For the target ZYX (UniProt Q15942), the thermal stability z-score in experiment [1] (setting [3]) was 0.568; in experiment [1] (arsenate co-treatment: none), 0.672; in experiment [2] it was -0.00636.

VAMP4 (UniProt O75379): the results for the thermal stability z-score in experiment [1] (setting [3]), in experiment [1] (arsenate co-treatment: none) and in experiment [2] were 1.45, 1.92 and 0.236, respectively.

For MRPL14 (UniProt Q6P1L8), the thermal stability z-score in experiment [1] (setting [3]) is -0.566; in experiment [1] (arsenate co-treatment: none), 0.0684; in experiment [2], 1.59.

Consider EIF5B (UniProt O60841), for which the thermal stability z-score is -0.519 in experiment [1] (setting [3]), -0.31 in experiment [1] (arsenate co-treatment: none) and 1.42 in experiment [2].
